Molecules are shown by their SMILES. Where only a bound is given, the exact number is not on record here.

In the first test the target is T1, hT1R2/T1R3 taste receptor (Homo sapiens, UniProt Q7RTX0+Q8TE23).
T1 sequence (Q8TE23 20-839): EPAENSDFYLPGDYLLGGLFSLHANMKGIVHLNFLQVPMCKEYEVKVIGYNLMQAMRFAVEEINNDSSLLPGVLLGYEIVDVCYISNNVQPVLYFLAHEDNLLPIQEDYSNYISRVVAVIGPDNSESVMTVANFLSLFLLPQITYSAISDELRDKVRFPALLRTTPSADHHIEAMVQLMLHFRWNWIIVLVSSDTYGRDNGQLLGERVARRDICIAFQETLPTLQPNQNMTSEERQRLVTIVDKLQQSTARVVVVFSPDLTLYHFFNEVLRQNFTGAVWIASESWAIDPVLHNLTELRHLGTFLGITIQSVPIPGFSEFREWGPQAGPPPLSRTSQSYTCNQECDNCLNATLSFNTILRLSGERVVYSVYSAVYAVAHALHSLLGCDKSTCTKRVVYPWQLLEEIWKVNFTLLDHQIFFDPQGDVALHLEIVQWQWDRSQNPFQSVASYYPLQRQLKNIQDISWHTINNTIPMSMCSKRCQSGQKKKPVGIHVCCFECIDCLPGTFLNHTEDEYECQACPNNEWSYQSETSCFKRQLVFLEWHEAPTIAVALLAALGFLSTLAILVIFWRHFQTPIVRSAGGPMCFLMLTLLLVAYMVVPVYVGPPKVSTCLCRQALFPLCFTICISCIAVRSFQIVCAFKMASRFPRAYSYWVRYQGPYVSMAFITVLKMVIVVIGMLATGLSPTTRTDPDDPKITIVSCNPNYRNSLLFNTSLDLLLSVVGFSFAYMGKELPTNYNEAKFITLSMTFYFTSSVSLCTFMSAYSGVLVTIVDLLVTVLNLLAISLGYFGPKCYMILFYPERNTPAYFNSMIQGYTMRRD
T1 sequence (Q7RTX0 21-852): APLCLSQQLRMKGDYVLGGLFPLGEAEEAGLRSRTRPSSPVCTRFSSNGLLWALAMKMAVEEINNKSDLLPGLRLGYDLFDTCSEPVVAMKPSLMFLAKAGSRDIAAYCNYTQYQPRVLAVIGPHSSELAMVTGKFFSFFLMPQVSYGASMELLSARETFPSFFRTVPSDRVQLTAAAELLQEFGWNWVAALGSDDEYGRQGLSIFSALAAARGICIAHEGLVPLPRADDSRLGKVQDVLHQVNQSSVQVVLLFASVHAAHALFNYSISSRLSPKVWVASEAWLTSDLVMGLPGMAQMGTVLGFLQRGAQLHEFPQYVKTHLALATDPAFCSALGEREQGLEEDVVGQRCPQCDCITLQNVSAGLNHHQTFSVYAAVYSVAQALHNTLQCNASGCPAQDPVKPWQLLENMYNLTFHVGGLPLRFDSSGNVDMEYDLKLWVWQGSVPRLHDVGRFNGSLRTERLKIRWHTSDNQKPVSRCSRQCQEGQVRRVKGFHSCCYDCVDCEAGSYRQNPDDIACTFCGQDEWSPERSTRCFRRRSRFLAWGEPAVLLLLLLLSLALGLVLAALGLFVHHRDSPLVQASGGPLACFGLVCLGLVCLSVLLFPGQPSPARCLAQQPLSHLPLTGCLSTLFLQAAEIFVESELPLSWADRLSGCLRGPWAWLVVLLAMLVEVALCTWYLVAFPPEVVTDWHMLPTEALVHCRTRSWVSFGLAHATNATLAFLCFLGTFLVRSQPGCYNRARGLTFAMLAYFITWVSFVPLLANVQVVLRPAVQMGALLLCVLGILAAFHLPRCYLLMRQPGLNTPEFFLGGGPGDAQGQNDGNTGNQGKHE
The experiment in a line: agonist activity against the hT1R2/T1R3 taste receptor (sweet receptor based assay). It counts as cell-based.
Details: not given
As for the experimental part:
Compounds described in this application show moderate to potent agonist effect on the sweet receptor based assay. Potencies (EC50 values, e.g. see Tables 1-3) for agonist activity were measured against the hT1R2/T1R3 taste receptor. FIG. 1 exemplifies the data generated during the screening to determine EC50 values.
As for `CC(C)CNC(=O)C(C)(C)N1CCC(C#N)(c2cccc(F)c2F)CC1` [Compound 79, 2-(4-cyano-4-(2,3-difluorophenyl)piperidin-1-yl)-N-isobutyl-2-methylpropanamide], it took 1.6 µM to reach a half-maximal effect (EC50).
Consider `COCC1(c2ccccc2)CCN(C(C)(C)C(=O)NCC(C)C)CC1` [Compound 120], for which the EC50 was above 10 µM.

Still in this test, the particulars now being: agonist activity, hT1R2/T1R3; read-out: Sweet EC50.
For `CC(C)CNC(=O)C(C)(C)N1CC=C(c2ccccc2F)CC1` [Compound 57], the EC50 came out at 1.6 µM.
Take `Cc1ccccc1C1=CCN(C(C)(C)C(=O)NCC(C)C)CC1` [Compound 58]: the EC50 was determined as 5.4 µM.
On the same count and under the same terms, in the case of `CC(C)CNC(=O)C(C)(C)N1CC=C(c2cccc(F)c2F)CC1` [Compound 59] it was 1.7 µM; in that of `COCc1cccc(C2=CCN(C(C)(C)C(=O)NCC(C)C)CC2)c1F` [Compound 60], 1.2 µM.
Take `COCc1c(F)cccc1C1=CCN(C(C)(C)C(=O)NCC(C)C)CC1` [Compound 61]: the EC50 turned out to be 6.5 µM.
The same measure, in the same setting: in the case of `CC(C)CNC(=O)C(C)(C)N1CC=C(c2cccc(F)c2)CC1` [Compound 62] it was 3 µM.
The same measure, in the same setting: the result for `COCc1cccc(C2=CCN(C(C)(C)C(=O)NCC(C)C)CC2)c1` [Compound 63] reads above 10 µM; that for `COCc1ccccc1C1=CCN(C(C)(C)C(=O)NCC(C)C)CC1` [Compound 64], above 10 µM; that for `Cc1cccc(C2=CCN(C(C)(C)C(=O)NCC(C)C)CC2)c1F` [Compound 65], 2.9 µM.
As to `CC(C)CNC(=O)C(C)(C)N1CC=C(c2cccc(CO)c2F)CC1` [Compound 66], the EC50 was above 10 µM.
The same measure, in the same setting: the result for `CC(C)CNC(=O)C(C)(C)N1CC=C(c2ccccc2N(C)C)CC1` [Compound 67] reads above 10 µM; that for `COc1cccc(C2=CCN(C(C)(C)C(=O)NCC(C)C)CC2)c1F` [Compound 68], above 10 µM.
With `COCc1ccc(C2=CCN(C(C)(C)C(=O)NCC(C)C)CC2)c(F)c1` [Compound 69], the EC50 was above 10 µM.
On the same count and under the same terms, in the case of `CC(C)CNC(=O)C(C)(C)N1CC=C(c2cncc(C#N)c2)CC1` [Compound 70] it was above 10 µM.
The same measure, in the same setting: the result for `CC(C)CNC(=O)C(C)(C)N1CC=C(c2cccc(CN(C)C)c2)CC1` [Compound 71] reads above 10 µM; that for `CC(C)CNC(=O)C(C)(C)N1CC=C(c2cccc3c2OCO3)CC1` [Compound 72], above 10 µM.
Consider `CC(C)CNC(=O)C(C)(C)N1CC=C(c2ccccc2C(=O)N(C)C)CC1` [Compound 73], for which the EC50 is above 10 µM.
Still for that read-out and setting: the result for `CC(C)CNC(=O)C(C)(C)N1CC=C(c2cccc(C(=O)N(C)C)c2)CC1` [Compound 74] reads above 10 µM.
Consider `Cc1ccncc1C1=CCN(C(C)(C)C(=O)NCC(C)C)CC1` [Compound 75], for which the EC50 is above 10 µM.
The same measure, in the same setting: in the case of `Cc1ncccc1C1=CCN(C(C)(C)C(=O)NCC(C)C)CC1` [Compound 76] it was above 10 µM; in that of `Cc1cccc(C2=CCN(C(C)(C)C(=O)NCC(C)C)CC2)n1` [Compound 77], above 10 µM.
As to `CC(C)CNC(=O)C(C)(C)N1CCC(c2ccccc2)CC1` [Compound 80, N-isobutyl-2-methyl-2-(4-phenylpiperidin-1-yl)propanamide], the EC50 was found to be 0.7 µM.
The same measure, in the same setting: in the case of `CC(C)(C(=O)NC1CC1)N1CCC(c2ccccc2)CC1` [Compound 82] it was 10.4 µM.
For the compound `CC(C)(C(=O)NC1CCC1)N1CCC(c2ccccc2)CC1` [Compound 83], the EC50 was above 10 µM.
Same read-out and setting: in the case of `CC(C)(C(=O)NC1CCCC1)N1CCC(c2ccccc2)CC1` [Compound 84] it was 2.5 µM; in that of `CCCNC(=O)C(C)(C)N1CCC(c2ccccc2)CC1` [Compound 85], 5.5 µM; in that of `CC(C)[C@@H](C)NC(=O)C(C)(C)N1CCC(c2ccccc2)CC1` [Compound 86], 4.4 µM.
The same measure, in the same setting: the result for `CC(C)(C)CNC(=O)C(C)(C)N1CCC(c2ccccc2)CC1` [Compound 88] reads 4.2 µM; that for `CC(C)CNC(=O)CN1CCC(c2ccccc2)CC1` [Compound 89], 6.7 µM.
Same read-out and setting: in the case of `CC(C)CNC(=O)C(C)N1CCC(c2ccccc2)CC1` (stereo not drawn) [Compound 90] it was 4.7 µM; in that of `CC(C)CNC(=O)C(C)(C)N1CCC(c2ccccc2F)CC1` [Compound 91], 0.4 µM.
Regarding `Cc1ccccc1C1CCN(C(C)(C)C(=O)NCC(C)C)CC1` [Compound 92], the EC50 came out at 1.6 µM.
Same read-out and setting: in the case of `CC(C)CNC(=O)C(C)(C)N1CCC(c2cccc(F)c2F)CC1` [Compound 94] it was 0.14 µM.
The same measure, in the same setting: the result for `COCc1cccc(C2CCN(C(C)(C)C(=O)NCC(C)C)CC2)c1F` [Compound 95] reads 0.5 µM; that for `CC(C)CNC(=O)C(C)(C)N1CCC(c2cccc(F)c2)CC1` [Compound 96], 0.6 µM.
Still for that read-out and setting: the result for `CC(C)CNC(=O)C(C)(C)N1CCC(c2ccc(F)cc2)CC1` [Compound 97] reads 6.2 µM; that for `Cc1cccc(C2CCN(C(C)(C)C(=O)NCC(C)C)CC2)c1F` [Compound 98], 0.9 µM.
Take `CC(C)CNC(=O)C(C)(C)N1CCC(c2cccc(CO)c2F)CC1` [Compound 99]: the EC50 was 4.7 µM.
Same read-out and setting: the result for `COc1cccc(C2CCN(C(C)(C)C(=O)NCC(C)C)CC2)c1F` [Compound 100] reads 1.4 µM.
On the same count and under the same terms, the result for `CC(C)CNC(=O)C(C)(C)N1CCC(c2ccccc2N(C)C)CC1` [Compound 101] reads above 10 µM.
Consider `COCc1ccc(C2CCN(C(C)(C)C(=O)NCC(C)C)CC2)c(F)c1` [Compound 102], for which the EC50 is above 10 µM.
Same read-out and setting: the result for `CC(C)CNC(=O)C(C)(C)N1CCC(c2cccc(CN(C)C)c2)CC1` [Compound 103] reads above 10 µM; that for `CC(C)CNC(=O)C(C)(C)N1CCC(c2cccc3c2OCO3)CC1` [Compound 104], 1.7 µM; that for `CC(C)CNC(=O)C(C)(C)N1CCC(c2ccccc2C(=O)N(C)C)CC1` [Compound 105], above 10 µM.
Still for that read-out and setting: the result for `CC(C)CNC(=O)C(C)(C)N1CCC(c2cccc(C(=O)N(C)C)c2)CC1` [Compound 106] reads above 10 µM; that for `Cc1ccncc1C1CCN(C(C)(C)C(=O)NCC(C)C)CC1` [Compound 107], above 10 µM.
On the same count and under the same terms, the result for `Cc1ncccc1C1CCN(C(C)(C)C(=O)NCC(C)C)CC1` [Compound 108] reads above 10 µM; that for `Cc1cccc(C2CCN(C(C)(C)C(=O)NCC(C)C)CC2)n1` [Compound 109], 5.1 µM; that for `COCc1ccccc1C1CCN(C(C)(C)C(=O)NCC(C)C)CC1` [Compound 110], above 10 µM.
`COCc1cccc(C2CCN(C(C)(C)C(=O)NCC(C)C)CC2)c1` [Compound 111]: the EC50 amounted to 3.1 µM.
The same measure, in the same setting: the result for `CC(C)CNC(=O)C1(N2CCC(c3ccccc3)CC2)COC1` [Compound 112] reads 4.8 µM.
Still for that read-out and setting: the result for `COCC(C(=O)NCC(C)C)N1CCC(c2ccccc2)CC1` (stereo not drawn) [Compound 113] reads 4.4 µM.
The same measure, in the same setting: in the case of `COCC(C(=O)NCC(C)C)N1CCC(c2cccc(F)c2F)CC1` (stereo not drawn) [Compound 114] it was 0.4 µM; in that of `CC(C)CNC(=O)C(C)(C)N1CCc2ccccc2C1` [Compound 116], 3.8 µM; in that of `CC(C)CNC(=O)C(C)(C)N1CCCC(c2ccccc2)CC1` (stereo not drawn) [Compound 117], 10.9 µM.
Take `CC(C)CNC(=O)C(C)(C)N1CCC(C)(c2ccccc2)CC1` [Compound 118]: the EC50 was 3.7 µM.
Same read-out and setting: in the case of `CC(C)CNC(=O)C(C)(C)N1CCC(CO)(c2ccccc2)CC1` [Compound 119] it was above 10 µM.
In the case of `CC(C)CNC(=O)C(C)(C)N1CCC2(CC1)OCc1ccccc12` [Compound 121], the EC50 amounted to 5.6 µM.
